Assay results: US20090182057A1, “DEUTERATED AMINOGLYCIDAL COMPOUNDS” (AUSPEX PHARMACEUTICALS, INC., priority 2006, published 2009)

conditions: topical or ocular, 5 microgram per mL
Procedure: In Vitro Liver Microsomal Stability Assay
Liver microsomal stability assays are conducted at 1 mg per mL liver microsome protein with an NADPH-generating system in 2% NaHCO3 (2.2 mM NADPH, 25.6 mM glucose 6-phosphate, 6 units per mL glucose 6-phosphate dehydrogenase and 3.3 mM MgCl2). Test compounds are prepared as solutions in 20% acetonitrile-water, and added to the assay mixture (final assay concentration 5 microgram per mL) and incubated at 37° C. Final concentration of acetonitrile in the assay should be <1%. Aliquots (50 μL) are taken out at times 0, 15, 30, 45, and 60 min, and diluted with ice cold acetonitrile (200 μL) to stop the reactions. Samples are centrifuged at 12,000 RPM for 10 min to precipitate proteins. Supernatants are transferred to microcentrifuge tubes and stored for LC/MS/MS analysis of the degradation half-life of the test compounds.

Increase in the degradation half-life as compared to non-isotopically enriched metoprolol, 10-30%:
[2H]C([2H])(Cc1ccc(OCC(O)CNC(C)C)cc1)OC (stereo not shown) [d2-metoprolol, d2-1-Isopropylamino-3-[4-(2-methoxy-ethyl)-phenoxy]-propan-2-ol]
[2H]C([2H])([2H])OCCc1ccc(OCC(O)CNC(C)C)cc1 (stereo not shown) [d3-metoprolol, d3-1-Isopropylamino-3-[4-(2-methoxy-ethyl)-phenoxy]-propan-2-ol]
[2H]C([2H])([2H])OC([2H])([2H])Cc1ccc(OCC(O)CNC(C)C)cc1 (stereo not shown) [d5-metoprolol, d5-1-Isopropylamino-3-[4-(2-methoxy-ethyl)-phenoxy]-propan-2-ol]
[2H]C([2H])([2H])OC([2H])([2H])Cc1ccc(OC([2H])([2H])C([2H])(O)C([2H])([2H])NC(C([2H])([2H])[2H])C([2H])([2H])[2H])cc1 (stereo not shown) [d16-metoprolol, d16-1-Isopropylamino-3-[4-(2-methoxy-ethyl)-phenoxy]-propan-2-ol]
